Tests used:
[1] = Macroscopic pKa value of the compound; type: physicochemical
[2] = target: T1, Delta-type opioid receptor (Mus musculus, UniProt P32300); test: Compound was evaluated for […] at Opioid receptor delta 1
Mu-type opioid receptor [3] = target: T2, Mu-type opioid receptor (Rattus norvegicus, UniProt P33535); test: Compound was evaluated for its ability to displace [3H]- CTOP (mu opioid receptor selective ligand)
[4] = target: T3, Delta-type opioid receptor (Rattus norvegicus, UniProt P33533); test: Compound was evaluated for the binding affinity in comparison with [3H][p-Cl-Phe4]-DPDPE (delta opioid receptor selective ligand)
T3 sequence (P33533 whole entry): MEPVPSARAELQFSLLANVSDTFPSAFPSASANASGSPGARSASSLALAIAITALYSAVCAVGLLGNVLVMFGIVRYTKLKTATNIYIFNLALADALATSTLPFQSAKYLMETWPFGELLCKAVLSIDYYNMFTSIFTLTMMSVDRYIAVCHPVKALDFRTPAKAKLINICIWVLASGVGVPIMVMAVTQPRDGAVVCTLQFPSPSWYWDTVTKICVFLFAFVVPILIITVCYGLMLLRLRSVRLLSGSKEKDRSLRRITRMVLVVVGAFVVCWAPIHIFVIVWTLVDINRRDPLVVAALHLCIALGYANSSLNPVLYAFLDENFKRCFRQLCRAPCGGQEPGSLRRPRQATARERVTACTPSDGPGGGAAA

[5] = target: Delta-type opioid receptor (Homo sapiens) (UniProt P41143); test: Compound was evaluated for the percentage of maximum inhibition at opioid receptor delta
Chain of Delta-type opioid receptor (Homo sapiens) (P41143 whole entry): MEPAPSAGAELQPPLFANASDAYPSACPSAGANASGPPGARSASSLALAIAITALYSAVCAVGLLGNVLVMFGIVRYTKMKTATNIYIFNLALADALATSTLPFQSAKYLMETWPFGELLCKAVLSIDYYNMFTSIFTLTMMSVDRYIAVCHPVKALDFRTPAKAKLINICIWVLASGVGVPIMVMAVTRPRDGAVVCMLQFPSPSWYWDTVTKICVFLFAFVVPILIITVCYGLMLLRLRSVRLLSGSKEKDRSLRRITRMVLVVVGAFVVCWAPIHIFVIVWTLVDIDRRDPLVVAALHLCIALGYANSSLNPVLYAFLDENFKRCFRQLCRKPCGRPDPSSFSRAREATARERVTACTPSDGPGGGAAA

Mu-type opioid receptor [6] = target: T2, Mu-type opioid receptor; test: Compound was evaluated for its ability to displace [3H]- CTOP (opioid receptor mu selective ligand)
[7] = target: T1, Delta-type opioid receptor; test: Compound was evaluated for its inhibitory potency against opioid receptor delta of Mouse vas deferens; type: tissue-based
[8] = target: T3, Delta-type opioid receptor; test: Compound was evaluated for the binding affinity in comparison with [3H]- DPDPE (opioid receptor delta selective ligand)
[9] = target: T1, Delta-type opioid receptor; test: Compound was evaluated for its inhibitory potency against Opioid receptor delta 1 of Mouse vas deferens; type: tissue-based
[10] = target: T3, Delta-type opioid receptor; test: Compound was evaluated for the binding affinity in comparison with [3H][p-Cl-Phe4]-DPDPE (opioid receptor delta selective ligand)

T1 sequence (P32300 whole entry): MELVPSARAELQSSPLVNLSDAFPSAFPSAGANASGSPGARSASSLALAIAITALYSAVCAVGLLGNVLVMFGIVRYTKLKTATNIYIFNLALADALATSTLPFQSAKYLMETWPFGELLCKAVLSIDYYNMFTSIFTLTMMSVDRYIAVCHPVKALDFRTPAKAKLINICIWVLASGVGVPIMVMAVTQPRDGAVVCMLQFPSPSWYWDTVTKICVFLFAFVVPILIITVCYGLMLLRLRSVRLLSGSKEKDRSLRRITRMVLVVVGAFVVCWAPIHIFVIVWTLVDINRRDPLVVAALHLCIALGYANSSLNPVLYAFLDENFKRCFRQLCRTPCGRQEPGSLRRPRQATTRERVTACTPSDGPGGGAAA
T2 sequence (P33535 whole entry): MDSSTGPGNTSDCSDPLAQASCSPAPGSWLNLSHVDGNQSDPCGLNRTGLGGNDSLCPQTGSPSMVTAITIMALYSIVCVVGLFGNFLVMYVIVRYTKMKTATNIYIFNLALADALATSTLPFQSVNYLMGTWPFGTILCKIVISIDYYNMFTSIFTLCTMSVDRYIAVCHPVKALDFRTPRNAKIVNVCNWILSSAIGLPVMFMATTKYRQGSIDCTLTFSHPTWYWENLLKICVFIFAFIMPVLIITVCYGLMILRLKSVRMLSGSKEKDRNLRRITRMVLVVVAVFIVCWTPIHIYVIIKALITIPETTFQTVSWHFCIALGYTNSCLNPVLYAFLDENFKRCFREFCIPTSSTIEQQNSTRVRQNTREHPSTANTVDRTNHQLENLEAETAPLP

## CC1(C)SSC(C)(C)[C@@H](NC(=O)[C@@H](N)Cc2ccc(O)c([N+](=O)[O-])c2)C(=O)NCC(=O)N[C@@H](Cc2ccccc2)C(=O)N[C@H]1C(=O)O
[1]
  pKa: 7.2

## C[C@H](c1ccc(O)cc1)[C@H](N)C(=O)N[C@H]1C(=O)NCC(=O)N[C@@H](Cc2ccccc2)C(=O)N[C@@H](C(=O)O)C(C)(C)SSC1(C)C
[2]
  IC50: 14.6 nM
Mu-type opioid receptor [3]
  IC50: > 20000 nM
[4]
  IC50: 84.8 nM

## CC1(C)SSC(C)(C)[C@@H](NC(=O)[C@@H](N)Cc2ccc(O)c(N)c2)C(=O)NCC(=O)N[C@@H](Cc2ccccc2)C(=O)N[C@H]1C(=O)O
[1]
  pKa: 10

## C[C@@H](c1ccc(O)cc1)[C@H](N)C(=O)N[C@H]1C(=O)NCC(=O)N[C@@H](Cc2ccccc2)C(=O)N[C@@H](C(=O)O)C(C)(C)SSC1(C)C
[2]
  IC50: 243 nM
Mu-type opioid receptor [3]
  IC50: 18600 nM
[4]
  IC50: 440 nM

## CC1(C)SSC(C)(C)[C@@H](NC(=O)[C@]2(N)CCC3C=C(O)C=CC3C2)C(=O)NCC(=O)N[C@@H](Cc2ccccc2)C(=O)N[C@H]1C(=O)O (stereo in doubt; 8) [listing 1 of 2 here]
[5]
  Emax: 31%

## Cc1cc(O)ccc1C[C@H](N)C(=O)N[C@H]1C(=O)NCC(=O)N[C@@H](Cc2ccccc2)C(=O)N[C@@H](C(=O)O)C(C)(C)SSC1(C)C
Mu-type opioid receptor [6]
  IC50: 1170 nM
[7]
  IC50: 4.52 nM
[8]
  IC50: 0.89 nM

## C[C@H](c1ccc(O)cc1)[C@@H](N)C(=O)N[C@H]1C(=O)NCC(=O)N[C@@H](Cc2ccccc2)C(=O)N[C@@H](C(=O)O)C(C)(C)SSC1(C)C
[9]
  IC50: 20700 nM
Mu-type opioid receptor [3]
  IC50: 22800 nM
[4]
  IC50: 426 nM

## C[C@@H](c1ccc(O)cc1)[C@@H](N)C(=O)N[C@H]1C(=O)NCC(=O)N[C@@H](Cc2ccccc2)C(=O)N[C@@H](C(=O)O)C(C)(C)SSC1(C)C
[2]
  IC50: 698 nM
Mu-type opioid receptor [3]
  IC50: > 40000 nM
[4]
  IC50: 20000 nM

## COc1cc(C[C@H](N)C(=O)N[C@H]2C(=O)NCC(=O)N[C@@H](Cc3ccccc3)C(=O)N[C@@H](C(=O)O)C(C)(C)SSC2(C)C)ccc1O
[1]
  pKa: 9.7

## CC1(C)SSC(C)(C)[C@@H](NC(=O)[C@]2(N)CCC3C=C(O)C=CC3C2)C(=O)NCC(=O)N[C@@H](Cc2ccccc2)C(=O)N[C@H]1C(=O)O (stereo in doubt; 9) [listing 1 of 2 here]
[10]
  IC50: 2.36 nM
Mu-type opioid receptor [6]
  IC50: 1440 nM
[7]
  IC50: 22 nM

## Cc1cc(O)ccc1C[C@@H](N)C(=O)N[C@H]1C(=O)NCC(=O)N[C@@H](Cc2ccccc2)C(=O)N[C@@H](C(=O)O)C(C)(C)SSC1(C)C
[2]
  IC50: 763 nM
Mu-type opioid receptor [3]
  IC50: 16600 nM
[4]
  IC50: 1130 nM

## CC1(C)SSC(C)(C)[C@@H](NC(=O)[C@]2(N)CCC3C=C(O)C=CC3C2)C(=O)NCC(=O)N[C@@H](Cc2ccccc2)C(=O)N[C@H]1C(=O)O (stereo in doubt; 9) [listing 2 of 2 here]
[5]
  Emax: 79%

## CC1(C)SSC(C)(C)[C@@H](NC(=O)[C@]2(N)CCC3C=C(O)C=CC3C2)C(=O)NCC(=O)N[C@@H](Cc2ccccc2)C(=O)N[C@H]1C(=O)O (stereo in doubt; 8) [listing 2 of 2 here]
[10]
  IC50: 24.5 nM
Mu-type opioid receptor [6]
  IC50: 2820 nM
[7]
  IC50: 137 nM

## CC1(C)SSC(C)(C)[C@@H](NC(=O)[C@@H](N)Cc2ccc(O)c(I)c2)C(=O)NCC(=O)N[C@@H](Cc2ccccc2)C(=O)N[C@H]1C(=O)O
[1]
  pKa: 8.2

Source: ChEMBL document CHEMBL1126091, “Ring substituted and other conformationally constrained tyrosine analogues of [D-Pen2,D-Pen5]enkephalin with delta opioid receptor selectivity” (J Med Chem, 1992)
